Patent publication US9862711B2, “Pyrazine derivatives as phosphatidylinositol 3-kinase inhibitors” (NOVARTIS AG, priority 2014, dated 2018)

Molecular target: PI 3-kinase delta (Homo sapiens (Human), UniProt O00329)
Test: TR-FRET Adapta assay (Assay F)
Format: biochemical
Conditions: read-out: Assay F PI3Kδ IC50
Text: TR-FRET Adapta Assay for PI 3-Kinase Gamma (E), PI 3-Kinase Delta (F)
The TR-FRET Adapta™ Universal Kinase Assay Kit was purchased from Invitrogen Corporation (Carlsbad/CA, USA) (Cat. No. PV5099). The kit contains the following reagents: Adapta Eu-anti-ADP Antibody (Europium labeled anti-ADP antibody in HEPES buffered saline, Cat. No. PV5097), Alexa Fluor® 647-labeled ADP tracer (Alexa Fluor® 647-labeled ADP tracer in HEPES buffered saline, Cat. No. PV5098), TR-FRET dilution buffer pH 7.5 (Cat. No. PV3574). PIK3CD substrate phosphatidylinositol (PI) was obtained from Invitrogen (vesicules consisting of 2 mM phosphatidylinositol (PI) in 50 mM HEPES pH7.5; Cat. No. PV5371). PIK3CG substrate phosphatidylinositol-4,5-bisphosphate (PIP(4,5)2 was obtained from Invitrogen (PIP2:PS large unilamellar vesicules consisting of 1 mM PIP2: 19 mM PS in 50 mM HEPES pH7.5, 3 mM MgCl2, 1 mM EGTA; Cat. No. PV5100).
Time-Resolved Fluorescence Resonance Energy Transfer (TR-FRET) is a technology based on energy transfer between two adjacent dyes, from an excited electron in one dye (the donor) to an electron of an adjacent dye (the acceptor) through resonance, then released as a photon. This energy transfer is detected by an increase in the fluorescence emission of the acceptor, and a decrease in the fluorescence emission of the donor. TR-FRET assays for protein kinases use a long-lifetime lanthanide Terbium or Europium chelates as the donor species which overcome interference from compound autofluorescence or light scatter from precipitated compounds, by introducing a delay after excitation by a flashlamp excitation source. Results are often expressed as a ratio of the intensities of the acceptor and donor fluorophores. The ratiometric nature of such a value corrects for differences in assay volumes between wells, as well as corrects for quenching effects due to colored compounds. The Adapta™ assay can be divided into two phases: a kinase reaction phase and an ADP detection phase. In the kinase reaction phase, all kinase reaction components are added to the well and the reaction is allowed to incubate for a set period of time specific for each kinase. After the reaction, a detection solution of Eu-labeled anti-ADP antibody, Alexa Fluor® 647-labeled ADP tracer, and EDTA (to stop the kinase reaction) are added to the assay well. ADP formed by the kinase reaction will displace the Alexa Fluor® 647-labeled ADP tracer from the antibody, resulting in a decrease in TR-FRET signal. In the presence of an inhibitor, the amount of ADP formed by the kinase reaction is reduced, and the resulting intact antibodytracer interaction maintains a high TR-FRET signal. In the Adapta™ assay, the donor (Europium-anti-ADP antibody) is excited at 340 nm and will transfer its energy to the acceptor (Alexa Fluor® 647-labeled ADP tracer). The emission from the Alexa Fluor® 647 can be monitored with a filter centered at 665 nm because it is located between the emission peaks of the donor, which is measured at 615/620 nm. 50 nL of compound dilutions were dispensed onto white 384-well small volume polystyrene plate. Then 5 μL of either PI 3-kinase gamma or PI 3-kinase delta and lipid substrate (P1 or PIP2:PS) followed by 5 μL of ATP (final assay volume 10 μL) are incubated at RT. The standard reaction buffer for the Adapta™ TR-FRET assay contained 10 mM Tris-HCl pH 7.5, 3 mM MgCl2, 50 mM NaCl, 1 mM DTT, 0.05% CHAPS ((3-[(3-cholamidopropyl)dimethylammonio]-1-propanesulfonate). Reactions were stopped with 5 μL of a mixture of EDTA containing the Eu-labeled anti-ADP antibody and the Alexa Fluor® 647-labeled ADP tracer in TR-FRET dilution buffer. Plates are read 15 to 60 mins later in a Synergy2 reader using an integration time of 0.4 seconds and a delay of 0.05 seconds. Control for the 100% inhibition of the kinase reaction was performed by replacing the PI 3-kinase by the standard reaction buffer. […]

Sequence of PI 3-kinase delta (O00329 2-1044): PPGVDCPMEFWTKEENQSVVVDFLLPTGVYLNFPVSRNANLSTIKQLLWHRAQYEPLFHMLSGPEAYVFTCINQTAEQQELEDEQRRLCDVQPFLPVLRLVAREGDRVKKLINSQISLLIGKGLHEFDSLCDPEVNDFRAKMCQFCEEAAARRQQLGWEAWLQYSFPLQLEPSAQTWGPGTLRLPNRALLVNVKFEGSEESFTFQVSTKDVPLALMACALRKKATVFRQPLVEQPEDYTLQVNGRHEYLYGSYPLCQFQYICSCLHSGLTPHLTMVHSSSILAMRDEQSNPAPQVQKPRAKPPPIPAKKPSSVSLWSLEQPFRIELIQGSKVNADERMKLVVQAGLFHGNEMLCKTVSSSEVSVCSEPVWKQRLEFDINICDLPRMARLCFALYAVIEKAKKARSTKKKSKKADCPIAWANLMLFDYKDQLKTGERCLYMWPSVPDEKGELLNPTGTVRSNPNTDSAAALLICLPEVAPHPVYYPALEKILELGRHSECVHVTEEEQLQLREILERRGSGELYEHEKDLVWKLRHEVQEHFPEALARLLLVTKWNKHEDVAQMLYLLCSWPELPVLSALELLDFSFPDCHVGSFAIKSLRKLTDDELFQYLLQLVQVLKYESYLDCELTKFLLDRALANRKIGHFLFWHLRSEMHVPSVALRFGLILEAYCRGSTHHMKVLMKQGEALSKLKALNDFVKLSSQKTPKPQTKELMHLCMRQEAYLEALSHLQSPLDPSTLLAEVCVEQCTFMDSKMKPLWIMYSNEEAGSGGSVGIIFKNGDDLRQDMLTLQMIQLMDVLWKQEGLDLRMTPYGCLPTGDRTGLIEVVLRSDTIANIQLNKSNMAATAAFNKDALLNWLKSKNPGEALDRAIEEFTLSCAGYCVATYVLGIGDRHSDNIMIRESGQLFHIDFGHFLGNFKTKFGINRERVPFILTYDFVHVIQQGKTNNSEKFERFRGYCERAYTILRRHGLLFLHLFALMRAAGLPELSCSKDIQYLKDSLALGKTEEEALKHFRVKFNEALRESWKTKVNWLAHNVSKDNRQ

Row | IC50 | SMILES
1 | 200 nM | Cc1ncc(-c2cncc(-c3cc(S(=O)(=O)NCCCO)ccc3C)n2)s1 [Example 1, N-(3-Hydroxy-propyl)-4-methyl-3-[6-(2-methyl-thiazol-5-yl)-pyrazin-2-yl]-benzenesulfonamide]
2 | 60 nM | Cc1ccc(S(=O)(=O)NCC(C)(C)O)cc1-c1cncc(-c2cn(C)nc2C)n1 [Example 2, 3-[6-(1,3-Dimethyl-1H-pyrazol-4-yl)-pyrazin-2-yl]-N-(2-hydroxy-2-methyl-propyl)-4-methyl-benzenesulfonamide]
3 | 70 nM | Cc1ccc(S(=O)(=O)NCCC(C)(C)O)cc1-c1cncc(-c2cn(C)nc2C)n1 [Example 3, 3-[6-(1,3-Dimethyl-1H-pyrazol-4-yl)-pyrazin-2-yl]-N-(3-hydroxy-3-methyl-butyl)-4-methyl-benzenesulfonamide]
4 | 70 nM | Cc1ccc(S(=O)(=O)NCC2(C)COC2)cc1-c1cncc(-c2cn(C)nc2C)n1 [Example 4, Trans 3-[6-(1,3-Dimethyl-1H-pyrazol-4-yl)-pyrazin-2-yl]-4-methyl-N-(3-methyl-oxetan-3-ylmethyl)-benzenesulfonamide]
5 | 90 nM | Cc1ncc(-c2cncc(-c3cc(S(=O)(=O)N[C@H]4CC[C@H](O)CC4)ccc3C)n2)s1 [Example 5, Trans N-(4-Hydroxycyclohexyl)-4-methyl-3-(6-(2-methylthiazol-5-yl)pyrazin-2-yl)benzenesulfonamide]
6 | 70 nM | Cc1ccc(S(=O)(=O)NCC(C)(C)CO)cc1-c1cncc(-c2cn(C)nc2C)n1 [Example 8, 3-[6-(1,3-Dimethyl-1H-pyrazol-4-yl)-pyrazin-2-yl]-N-(3-hydroxy-2,2-dimethyl-propyl)-4-methyl-benzenesulfonamide]
7 | 10 nM | Cc1ccc(S(=O)(=O)NCCC(C)(C)O)cc1-c1cncc(-c2cnn(CCN3CCOCC3)c2)n1 [Example 9, N-(3-Hydroxy-3-methyl-butyl)-4-methyl-3-{6-[1-(2-morpholin-4-yl-ethyl)-1H-pyrazol-4-yl]-pyrazin-2-yl}-benzenesulfonamide]
8 | 20 nM | Cc1ccc(S(=O)(=O)NCCC(C)(C)O)cc1-c1cncc(-c2cn(CCN3CCOCC3)nc2C)n1 [Example 10, N-(3-Hydroxy-3-methyl-butyl)-4-methyl-3-{6-[3-methyl-1-(2-morpholin-4-yl-ethyl)-1H-pyrazol-4-yl]-pyrazin-2-yl}-benzenesulfonamide]
9 | 120 nM | Cc1ccc(S(=O)(=O)N[C@H]2CC[C@H](O)CC2)cc1-c1cncc(-c2cccnc2)n1 [Example 11, Trans N-(4-Hydroxy-cyclohexyl)-4-methyl-3-(6-pyridin-3-yl-pyrazin-2-yl)-benzenesulfonamide]
